This is an account of results in patent US11623925B2, “Processes for preparing a diaminopyrimidine derivative or acid addition salt thereof” (YUHAN CORPORATION, priority 2018, dated 2023).

Where a name gives a salt, the structure may show the parent alone.

Data set [1] is described as follows: Stability tests: storage at 60° C. and 75% RH for 2 weeks, HPLC analysis. Type of data set: physicochemical. The note with it: for change in the HPLC purity / change in the amount of deacetylated impurities: 2 weeks, in words. Here is the method:
(S)-N-(1-(2-((4-amino-3-nitrophenyl)amino)-6-propylpyrimidin-4-yl)pyrrolidin-3-yl) acetamide hydrochloride prepared according to WO 2012/115480 (Amorphous form, Test compound 1) and the crystalline form A of (S)-N-(1-(2-((4-amino-3-nitrophenyl)amino)-6-propylpyrimidin-4-yl)pyrrolidin-3-yl)acetamide hydrochloride prepared in Example 7 (Test compound 2) were stored under the conditions of 60° C. and 75% RH for 2 weeks. The amounts of each test compound and the deacetylated impurities were analyzed with HPLC so as to measure the respective HPLC purities.

Data set [2] is described as follows: Storage of the amorphous hydrochloride at room temperature. It is filed as physicochemical. The following applies: stored at room temperature; in words. Here is the method:
In addition, WO 2012/115480 has disclosed the step for converting the compound of Formula 1 to a hydrochloride thereof. The converting step comprises reacting the compound of Formula 1 with hydrochloric acid in ethyl acetate, stirring at room temperature for 1 hour, and then filtering the product. It has been found by the present inventors that the hydrochloride of the compound of Formula 1 obtained by said method is in the amorphous form and brings about the problem producing deacetylated impurities in high level when stored at room temperature.

Regarding `CCCc1cc(N2CC[C@H](NC(C)=O)C2)nc(Nc2ccc(N)c([N+](=O)[O-])c2)n1` [Test compound 2, (S)-N-(1-(2-((4-amino-3-nitrophenyl)amino)-6-propylpyrimidin-4-yl)pyrrolidin-3-yl)acetamide hydrochloride], in data set [1], the “change in the HPLC purity” value was “no significant change” and the “change in the amount of deacetylated impurities” value is reported as “no significant change”. Further, in data set [1] (Storage time: 1 week), the “HPLC purities, Compound” value amounted to 99.6% and the “HPLC purities, Deacetylated impurities” value is on record as 0.07%. Further, in data set [1] (Storage time: 2 weeks), the “HPLC purities, Compound” value is 99.6% and the “HPLC purities, Deacetylated impurities” value turned out to be 0.07%. For the same compound, in data set [1] (Storage time: Initial), the “HPLC purities, Compound” value was found to be 99.6% and the “HPLC purities, Deacetylated impurities” value came out at 0.08%.

`CCCc1cc(N2CC[C@H](NC(C)=O)C2)nc(Nc2ccc(N)c([N+](=O)[O-])c2)n1.Cl` [Test compound 1, (S)-N-(1-(2-((4-amino-3-nitrophenyl)amino)-6-propylpyrimidin-4-yl)pyrrolidin-3-yl) acetamide hydrochloride]: in data set [2], the “deacetylated impurities produced on storage” value is given as “high level”. Moreover, in data set [1], the “change in the HPLC purity” value was “marked decrease” and the “change in the amount of deacetylated impurities” value was “marked increase”. Further, in data set [1] (Storage time: 1 week), the “HPLC purities, Compound” value was 95.5% and the “HPLC purities, Deacetylated impurities” value worked out at 3.78%. In data set [1] (Storage time: 2 weeks), the “HPLC purities, Compound” value amounted to 86.6% and the “HPLC purities, Deacetylated impurities” value was 12.7%. In addition, in data set [1] (Storage time: Initial), the “HPLC purities, Compound” value amounted to 98.7% and the “HPLC purities, Deacetylated impurities” value turned out to be 0.58%.
